The record followed here is patent US20030220521A1, “Renal-selective prodrugs for control of renal sympathetic nerve activity in the treatment of hypertension” (G.D. Searle & Co., priority 1989, published 2003).

For orientation: inhibition means the relative decrease from the control value, in per cent.

Like-named read-outs stand apart in the source and are kept apart here. A value given as a limit tells only on which side of the number the result lay.

In one assay the test system is rats, heart and kidneys. The experiment in a line: Assay X: catecholamine analysis of heart and kidney tissue after 5 days of infusion. It is filed as in vivo, rat. On the procedure: Following 5 days of infusion, the kidney was exposed through a small flank incision, made in the anesthetized rat, and the renal artery and vein were ligated. Following this the kidney was rapidly excised distal to the ligation and frozen in liquid nitrogen. Similarly, the heart was excised and frozen subsequent to the removal of both kidneys. The frozen tissues were stored in closed containers at −80° C. Tissue samples were thawed on ice and their weight recorded prior to being placed in a flat bottom tube. The cold extraction solvent (2 ml/g tissue) was then added and the sample was homogenized with a Polytron. Extraction Solvent: 0.1 M perchloric acid (3 ml of 70% PCA to 500 ml); 0.4 mM Na metabisulphite (38 mg/500 ml). The volume was then measured and 0.05 ml of a 1 uM/L solution of dihydroxybenzylamine (DHBA) in extraction solvent was added for every 0.95 ml of homogenate to yield a 50 nM/L internal standard concentration. The homogenate was then mixed and centrifuged at 4° C., 3000 rpm for 35 minutes. A 2 ml aliquot of the supernatant was then neutralized by adding 0.5 ml of 2 M Tris, pH 8.8 and mixing. The sample was then placed on an alumina column (40 mg, Spe-ed CAT cartridge; Applied Separations; Bethlehem, Pa.) and the catecholamines were bound, washed and eluted using a vacuum manifold system (Adsorbex SPU, EM Science, Cherry Hill, N.J.) operating at ca. 4 ml/min. until the column was dry. Washes of 1 ml H20—0.5 ml MeOH—1 ml H20 were followed by elution with 1 ml of extraction solvent. A 200 μl sample of the eluant was injected onto a C-18 reversed phase analytical HPLC column, 5 um, 4.6 mm×250 mm (e.g., Beckman #235335, LKB 2134-630 Spherisorb ODS-2) and eluted with a recycled mobile phase run at ambient temperature and a flow rate of 0.5 ml/min (ca. 75 bar). Mobile Phase: 0.02 M Na2HP04 in 75/25(v/v) H20/MeOH 0.007% SDS pH 3.5 (conc. H3P04). The separated catecholamines were detected with a LKB 2143 electrochemical detector at a potential setting of 500 mV using a teflon flow cell spacer of 2.2 μl and a time constant of 2 sec. Peak heights were measured and recorded along with the chromatogram tracing using a Spectra-Physics 4270 integrator. […] The resulting factor (calculated for each sample) was used to correct for losses due to dilution, non-specific binding to the tissue precipitate, incomplete elution, etc. Concentrations were calculated by multiplying the peak heights for Epi, NE and DA by that samples correction factor and then dividing this value by the peak height of the respective standard. […] This value is multiplied by the volume of the homogenate (determined previously) to get the total catecholamine content of the tissue expressed in moles/g tissue. […]

For assay [1], the target named is T1, dopamine beta-hydroxylase (DBH; EC 1.14.17.1) (Bos taurus, UniProt P15101).
T1 construct: DBH, purified from bovine adrenals (Sigma); purchased Sigma; host or cells: bovine adrenals (tissue-purified)
T1 sequence (P15101 1-610): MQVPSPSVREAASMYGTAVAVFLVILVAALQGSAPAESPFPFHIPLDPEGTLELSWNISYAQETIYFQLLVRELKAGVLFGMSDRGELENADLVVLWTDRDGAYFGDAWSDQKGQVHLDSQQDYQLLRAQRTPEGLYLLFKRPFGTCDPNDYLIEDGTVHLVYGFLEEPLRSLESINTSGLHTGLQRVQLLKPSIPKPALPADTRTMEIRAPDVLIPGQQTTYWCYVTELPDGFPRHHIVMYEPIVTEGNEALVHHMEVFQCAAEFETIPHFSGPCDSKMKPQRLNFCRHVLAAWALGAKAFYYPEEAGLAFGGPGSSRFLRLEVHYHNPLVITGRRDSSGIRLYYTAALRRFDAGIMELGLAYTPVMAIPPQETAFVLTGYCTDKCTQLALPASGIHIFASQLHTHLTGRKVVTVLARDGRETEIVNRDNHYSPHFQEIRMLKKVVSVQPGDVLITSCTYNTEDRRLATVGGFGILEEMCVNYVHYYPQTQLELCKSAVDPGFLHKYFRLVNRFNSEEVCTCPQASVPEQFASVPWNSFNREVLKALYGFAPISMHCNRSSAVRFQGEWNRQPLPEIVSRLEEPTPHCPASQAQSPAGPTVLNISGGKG
In words: Assay V: in vitro DBH inhibition (norepinephrine production, HPLC). It counts as biochemical, bovine. The following applies: for inhibition at 20 µM: read-out: % Inhibition of DBH; for inhibitory effect on dopamine-β-hydroxylase activity: tested at 20 uM. On the procedure: In order to characterize the relative potency of the Ex. #859 conjugate and its various potential metabolites as inhibitors of dopamine beta-hydroxylase (DBH; EC 1.14.17.1), the enzyme activity was determined in vitro in the presence of these compounds. DBH, purified from bovine adrenals (Sigma) was incubated at 37° C. in buffer containing 20 mM dopamine as substrate. The reaction was stopped by addition of 0.5 M perchloric acid. The precipitate was removed and the product of the enzyme activity (norepinephrine), contained in the clear supernatant, was analyzed by HPLC. The chromatographic separation used a reversed phase C-18 column run isocratically with 0.2 M ammonium acetate (pH 5.2) as the mobile phase. The amount of norepinephrine produced by the enzyme-substrate mixture was analyzed by measuring the peak intensity (absorbance) at 280 nm for norepinephrine as it was eluted at 4.5 minutes, using a photo-diode array detector. The result of adding either fusaric acid or the Ex. #859 conjugate to the incubate at various concentrations is shown in Table XXIII and FIG. 6. […] Fusaric acid and Ex. #859 and two more possible metabolites (Ex #858 and fusaric acid hydrazide) were tested at 20 uM.

For the compound `CCCCc1ccc(C(=O)NNC(=O)CCC(NC(C)=O)C(=O)O)nc1` [Ex. #859, N-acetyl-L-glutamic acid, 5-[(5-butyl-2-pyridinyl)-carbonyl]hydrazide], the “heart norepinephrine concentration relative to vehicle” value in the assay on rats, heart and kidneys is on record as “only fusaric acid decreased heart norepinephrine concentration”. Besides, the “kidney norepinephrine concentration relative to vehicle” value with rats, heart and kidneys is listed as “decreased kidney norepinephrine concentration”. For the same compound, the “Norepinephrine Peak Intensity (Abs 280) in the presence of compound” value (“Norepinephrine Peak Intensity” for short) in assay [1] (compound 0.10 μM) was 0.51 Abs 280; in assay [1] (compound 1.00 μM), 0.52 Abs 280; in assay [1] (compound 10.00 μM) it was 0.61 Abs 280; in assay [1] (compound 100.00 μM) it was 0.53 Abs 280. Further, in assay [1] (concentrations up to 100 uM), the DBH inhibitory activity entry was “no appreciable activity”. Moreover, the inhibition at 20 µM in assay [1] (test compound 20 μM) was found to be 1.5%. In addition, the “inhibitory effect on dopamine-β-hydroxylase activity” value in assay [1] is “Only fusaric acid had significant inhibitory effects”.

In the case of `CCCCc1ccc(C(=O)O)nc1` [Fusaric Acid, 5-n-butylpicolinic acid], the “heart norepinephrine concentration relative to vehicle” value in the assay with rats, heart and kidneys is reported as “decreased heart norepinephrine concentration”. Moreover, the “kidney norepinephrine concentration relative to vehicle” value with rats, heart and kidneys is on record as “decreased kidney norepinephrine concentration”. Also, the “concentration above which the enzyme is inhibited” value in assay [1] (20 mM dopamine as substrate, 37° C) is > 1 µM. The “Norepinephrine Peak Intensity” value in assay [1] (compound 0.01 μM) is given as 0.59 Abs 280; in assay [1] (compound 0.10 μM) it was 0.59 Abs 280; in assay [1] (compound 0.50 μM), 0.60 Abs 280; in assay [1] (compound 1.00 μM), 0.53 Abs 280; in assay [1] (compound 5.00 μM), 0.25 Abs 280; in assay [1] (compound 10.00 μM), 0.14 Abs 280. Moreover, the “Norepinephrine Peak Intensity” value in assay [1] (compound 50.00 μM) and in assay [1] (compound 100.00 μM) was 0.00 Abs 280 each time. In assay [1], the inhibition at 20 µM is 75.4%. Also, the “inhibitory effect on dopamine-β-hydroxylase activity” value in assay [1] is given as “significant inhibitory effects”.
